Consider three molecules from patent US20260151360A1, “ENDOXIFEN COMPOSITIONS AND METHODS OF USE THEREOF AND SYNTHESIS THEREOF” (Atossa Therapeutics, Inc., priority 2023, published 2026).

Structures are written as SMILES. Like-named read-outs stand apart in the source and are kept apart here. A value given as a limit tells only on which side of the number the result lay.

The nature of data set [1]: (Z)-Endoxifen solubility in dissolution media (pH 6.8 buffer with and without Polysorbate 80). Type of data set: physicochemical. The procedure:
This example describes development of a dissolution assay to measure dissolution of endoxifen formulations. […] Polysorbate 80 (PS80), a nonionic surfactant, was added in varying concentrations to improve solubility and mimic an intestinal environment. Surfactants, such as polysorbate 80, create micelles in the medium that mimic the bile acid aggregates in the small intestine. These micelles facilitate the diffusion and transport of product into the medium.

Data set [2] is described as follows: Plasma pharmacokinetics of endoxifen after administration of the compositions. The class given is in vivo. As to conditions: for half-life: endoxifen released from a composition disclosed herein; for AUC(0-t): read-out: mean AUC24hr.
The conditions of data set [3]: cited from earlier work.

For `CC/C(=C(\c1ccc(O)cc1)c1ccc(OCCNC)cc1)c1ccccc1` [endoxifen, 4-hydroxy-N-desmethyl-tamoxifen], the “solubility as a function of pH” value in data set [1] is “decreases as pH becomes less acidic”. In addition, in data set [2] (daily administration of a composition), the “day by which steady state plasma levels are achieved” value was not above 7 days. The half-life was 40 to 53 h in data set [2] (human, plasma, read-out: mean half-life) and 30 to 60 h in data set [2] (human, plasma, read-out: terminal elimination half-life).
As to `CC/C(=C(\c1ccccc1)c1ccc(OCCN(C)C)cc1)c1ccccc1` [tamoxifen, (Z)-2-[4-(1,2-diphenyl-1-butenyl)phenoxy]-N,N-dimethylethanamine], the Terminal elimination half-life in data set [3] (Jordan C. Steroids 2007) is 120 to 170 h. The peak concentration time result in data set [3] (post-dose) was “approximately 5 hours”. The “Reported therapeutic levels of plasma tamoxifen” value in data set [3] (subjects dosed with 20 mg of oral tamoxifen (Lyon et al. 2012)) is recorded as not below 30 nM.
Turning to `CC/C(=C(\c1ccc(O)cc1)c1ccc(OCCNC)cc1)c1ccccc1` [(Z)-endoxifen], the AUC(0-t) in data set [2] (human, plasma, Day 1 of initial (first) dose, composition comprising 1 mg to 4 mg of (Z)-endoxifen) is 150 to 600 ng·h/mL; in data set [2] (human, plasma, Day 21, compositions comprising 1 mg to 4 mg of (Z)-endoxifen), 400 to 2500 ng·h/mL. In data set [2] (human, plasma, dosing range of 1 mg to 4 mg of (Z)-endoxifen), this molecule displayed an AUC(0-inf) of 400 to 6000 ng·h/mL.
